Measurements as given in paper PMC9415951 (Viruses, 2022).
“Also recorded” adds a separate entry of the source. Counter-ions that a name gives are not always drawn. Like-named read-outs stand apart in the source and are kept apart here.

Key:
SARS-CoV-2 [1] = assay: microbe, parasite or virus in culture; assay type: cell-based; settings: for protective effect against SARS-CoV-2 infectivity (in words): preincubation 2 h, crystal violet 72 h after infection; for inhibition at 100 µM: Severe acute respiratory syndrome coronavirus 2, Vero
[2] = Cytotoxicity assay (XTT) on VERO cells; assay type: cell-based, African green monkey; settings: African green monkey
VERO cells = assay: Cytotoxicity assay (XTT) on VERO cells; assay type: cell-based, African green monkey; settings: 100 µM, 72 h
bovine thrombin = bovine thrombin (Bos taurus, UniProt P00735); assay: Thrombin inhibition assay (chromogenic substrate S-2238); assay type: biochemical
[3] = biological target: recombinant human factor Xa (Homo sapiens, UniProt P00742); assay: Factor Xa inhibition assay (chromogenic substrate S-2765); assay type: biochemical
SARS-CoV-2 [4] = assay type: cell-based; settings: 100 µM, virus coincubated with compound before infecting VERO cells
[5] = Stability in pooled human serum (RP-HPLC); assay type: in vitro ADME; settings: for residual, % of the starting concentration: human serum
[6] = Stability in phosphate buffer solution pH 7.4 (RP-HPLC); assay type: physicochemical; settings: for residual, % of the starting concentration: pH 7.4 buffer
[7] = VERO cells, confluent monolayers (mock-infected), 72 h, XTT, read-out: VERO Cells Toxicity, CC50
[8] = Cheng-Prousoff from IC50, mean of three measurements, read-out: Enzyme Inhibition, Ki, Thrombin
[9] = Cheng-Prousoff from IC50, mean of three measurements, read-out: Enzyme Inhibition, Ki, Factor Xa

Chain of recombinant human factor Xa (P00742 235-488 limits assumed): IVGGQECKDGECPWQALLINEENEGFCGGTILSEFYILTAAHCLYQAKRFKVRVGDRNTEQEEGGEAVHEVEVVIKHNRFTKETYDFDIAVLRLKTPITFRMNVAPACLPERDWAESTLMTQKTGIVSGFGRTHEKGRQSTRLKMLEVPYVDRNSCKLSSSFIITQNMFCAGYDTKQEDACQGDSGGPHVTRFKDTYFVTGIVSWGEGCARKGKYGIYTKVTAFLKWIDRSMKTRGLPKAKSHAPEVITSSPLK
Chain of recombinant human factor Xa (P00742 41-179 partner limits assumed): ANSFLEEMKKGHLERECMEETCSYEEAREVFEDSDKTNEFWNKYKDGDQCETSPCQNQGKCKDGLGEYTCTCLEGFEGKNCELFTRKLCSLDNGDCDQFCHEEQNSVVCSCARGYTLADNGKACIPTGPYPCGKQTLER

O=C(NC[C@H]1CN(c2ccc(N3CCOCC3=O)cc2)C(=O)O1)c1ccc(Cl)s1 [Rivaroxaban, rivaroxaban]
protective effect against SARS-CoV-2 infectivity (in words) (SARS-CoV-2 [1]; 100 µM): did not show any effect; also recorded: did not show any ability to reduce the virus infectivity | CC50 at 72 h [2, 7]: > 200000 nM | VERO Cells Toxicity, Cytotoxicity at 100 µM (% of nonviable cells) (VERO cells; XTT, mock-infected VERO cells): 29.4 ± 0.8% | Ki (bovine thrombin): 12000 nM | inhibition mechanism, thrombin (bovine thrombin; time-dependent inhibition): reversible inhibitors | inhibition mechanism, fXa ([3]; time-dependent inhibition): reversible inhibitors

N=C(N)N1CCC(C(=O)Nc2ccccc2OCc2cc(-c3ccc(Cl)s3)on2)CC1 [Compound 1]
protective effect against SARS-CoV-2 infectivity (in words) (SARS-CoV-2 [1]; 100 µM): weak (nonsignificant) protective effect | CC50 at 72 h [2]: > 200000 nM | VERO Cells Toxicity, Cytotoxicity at 100 µM (% of nonviable cells) (VERO cells; African green monkey): 20.3 ± 0.9% | Ki (bovine thrombin; [8]): 6820 nM | effect on SARS-CoV-2 infectivity (in words) (SARS-CoV-2 [4]): did decrease viral infectivity | Ki [3, 9]: 2 nM

N=C(N)N1CCC(C(=O)Nc2cccc(OCc3cc(-c4ccc(Cl)s4)on3)c2)CC1 [Compound 3]
protective effect against SARS-CoV-2 infectivity (in words) (SARS-CoV-2 [1]; 100 µM): completely inhibited; also recorded: statistically significant protective effects; also recorded: totally block SARS-CoV-2 entry | inhibition at 100 µM (SARS-CoV-2 [1]; read-out: inhibition of virus infectivity): 100% | inhibitory effects on SARS-CoV-2 infection (SARS-CoV-2 [1]; lower concentrations 3–50 µM, preincubation, VERO cells): ca. 30% | CC50 at 72 h ([2]; 72 h, XTT, read-out: VERO Cells Toxicity, CC50): 155000 ± 16000 nM | time dependence of inhibition constant (bovine thrombin; preincubation 0, 15, 30 min): did not show any significant time-dependent change in inhibition constant | effect on SARS-CoV-2 infectivity (in words) (SARS-CoV-2 [4]): did decrease viral infectivity; also recorded: best candidate against the viral infection | residual, % of the starting concentration ([5]; 0 h): 100% | residual, % of the starting concentration ([5]; 1 h): 95.8±1.0% | residual, % of the starting concentration ([5]; 4 h): 96.6±1.5% | residual, % of the starting concentration ([5]; 12 h): 93.2±2.5% | residual, % of the starting concentration ([5]; 24 h): 96.8±3.0% | hydrolytic degradation after 24 h ([5]; pooled blood human serum, 24 h): less than 10% | Ki [3, 9]: 15 nM | Ki ([3]; Ki, factor Xa, time-dependent inhibition, incubation time 0 min): 20 ± 7 nM | Ki ([3]; Ki, factor Xa, time-dependent inhibition, incubation time 15 min): 17 ± 8 nM | hydrolytic degradation after 24 h ([6]; PBS pH 7.4, 24 h): less than 10% | residual, % of the starting concentration ([6]; 0 h): 100% | residual, % of the starting concentration ([6]; 1 h): 98.8±0.5% | residual, % of the starting concentration ([6]; 4 h): 98.1±1.5% | residual, % of the starting concentration ([6]; 12 h): 97.5±0.5% | residual, % of the starting concentration ([6]; 24 h): 97.9±1.0%

[H]/N=C(/N)c1ccc(NCc2nc3cc(C(=O)N(CCC(=O)O)c4ccccn4)ccc3n2C)cc1 [Dabigatran, dabigatran]
protective effect against SARS-CoV-2 infectivity (in words) (SARS-CoV-2 [1]; 100 µM): did not show any effect; also recorded: did not show any ability to reduce the virus infectivity | CC50 at 72 h [2, 7]: > 200000 nM | VERO Cells Toxicity, Cytotoxicity at 100 µM (% of nonviable cells) (VERO cells; XTT, mock-infected VERO cells): 18.3 ± 0.8% | inhibition mechanism, thrombin (bovine thrombin): reversible inhibitors | inhibition mechanism, fXa ([3]; time-dependent inhibition): reversible inhibitors

CC(C)N1CCC(C(=O)Nc2ccccc2OCc2cc(-c3ccc(Cl)s3)on2)CC1 [Compound 2]
protective effect against SARS-CoV-2 infectivity (in words) (SARS-CoV-2 [1]; 100 µM): did not show any ability to reduce the virus infectivity | CC50 at 72 h [2]: > 200000 nM | VERO Cells Toxicity, Cytotoxicity at 100 µM (% of nonviable cells) (VERO cells; African green monkey): 7.45 ± 0.24% | Ki [3, 9]: 0.3 nM

N=C(N)c1ccc2cc(OC(=O)c3ccc(N=C(N)N)cc3)ccc2c1 [Nafamostat, Nafamostat mesylate]
protective effect against SARS-CoV-2 infectivity (in words) (SARS-CoV-2 [1]; 100 µM): did not achieve statistically significant activity | protective effect against SARS-CoV-2 infectivity (in words) (SARS-CoV-2 [1]; 100 µM, listed as NAF): weak (nonsignificant) protective effect | cellular monolayer preserved (SARS-CoV-2 [1]; 100 µM, preincubation, crystal violet staining): around 60% | cells with SARS-CoV-2 detected (SARS-CoV-2 [1]; 100 µM, preincubation, immunofluorescence): ~ 25% | activity against SARS-CoV-2 infection over scalar concentrations (in words) (SARS-CoV-2 [1]; 3–100 µM, preincubation): not to have statistically significant activity | inhibition at 100 µM (SARS-CoV-2 [1]; read-out: reduction of viral entry (inhibition)): ~20% | inhibition of SARS-CoV-2 infection (SARS-CoV-2 [1]; whole range of test concentrations 3–100 µM, VERO cells): 15–20% | CC50 at 72 h [2, 7]: > 200000 nM | VERO Cells Toxicity, Cytotoxicity at 100 µM (% of nonviable cells) (VERO cells; XTT, mock-infected VERO cells): 16.0 ± 0.8% | Ki (bovine thrombin; [8]): 10 nM | Ki (bovine thrombin; incubation time 0 min, read-out: Ki, thrombin, time-dependent inhibition): 77 nM | Ki (bovine thrombin; incubation time 15 min, read-out: Ki, thrombin, time-dependent inhibition): 13 nM | Ki (bovine thrombin; incubation time 30 min, read-out: Ki, thrombin, time-dependent inhibition): 5 nM | inhibition mechanism, thrombin (bovine thrombin; time-dependent inhibition): covalent inhibitor | residual, % of the starting concentration ([5]; 0 h): 100% | residual, % of the starting concentration ([5]; 0.5 h): 45.9±4.3% | residual, % of the starting concentration ([5]; 1 h): 21.2±5.2% | residual, % of the starting concentration ([5]; 2 h): 5.1±3.3% | half-life at 100 µM ([5]; pooled human serum, 37 °C, read-out: half-life in human pooled blood serum): 0.267 h | Ki ([3]; incubation time 0 min, read-out: Ki, factor Xa, time-dependent inhibition): 363 ± 6 nM | Ki ([3]; incubation time 15 min, read-out: Ki, factor Xa, time-dependent inhibition): 340 ± 10 nM | Ki ([3]; incubation time 30 min, read-out: Ki, factor Xa, time-dependent inhibition): 225 ± 9 nM | inhibition mechanism, fXa ([3]; time-dependent inhibition): covalent inhibitor | residual, % of the starting concentration ([6]; 0 h): 100% | residual, % of the starting concentration ([6]; 0.5 h): 95.1±0.5% | residual, % of the starting concentration ([6]; 1 h): 87.6±1.2% | residual, % of the starting concentration ([6]; 2 h): 84.9±1.0% | residual, % of the starting concentration ([6]; 4 h): 81.6±1.8% | residual, % of the starting concentration ([6]; 8 h): 78.4±2.5% | residual, % of the starting concentration ([6]; 12 h): 73.8±3.0% | residual, % of the starting concentration ([6]; 24 h): 61.4±2.8% | half-life at 100 µM ([6]; phosphate buffer solution (PBS), PBS pH 7.4, 37 °C): ~45 h
